Test results as given in ChEMBL document CHEMBL6153169, “Menominin A and B: Cytotoxic Cyclodepsipeptides from the Freshwater Sponge-Associated Cyanobacterium Nostoc sp. UIC 10607” (J Nat Prod, 2025).

Columns and labels:
OVCAR-3 = test: Cytotoxicity against human OVCAR-3 cells assessed as inhibition of cell growth incubated for 72 hrs by CellTiter 96 Aqueous One Solution based assay; type: functional; conditions: OVCAR-3, 72 h
MDA-MB-435 = test: Cytotoxicity against human MDA-MB-435 cells assessed as inhibition of cell growth incubated for 72 hrs by CellTiter 96 Aqueous One Solution based assay; type: functional; conditions: MDA-MB-435, 72 h

| Compound | IC50 (OVCAR-3) [nM] | IC50 (MDA-MB-435) [nM] |
| --- | --- | --- |
| CC(=O)O[C@H]1C(=O)[C@@]2(C)[C@H]([C@H](OC(=O)c3ccccc3)[C@]3(O)C[C@H](OC(=O)[C@H](O)[C@@H](NC(=O)c4ccccc4)c4ccccc4)C(C)=C1C3(C)C)[C@]1(OC(C)=O)CO[C@@H]1C[C@@H]2O [PACLITAXEL] | 2.2 | 0.52 |
| CCCCCC[C@@H]1CCCC[C@@H](O)[C@H](C)C(=O)O[C@@H](C(C)C)C(=O)N[C@@H](Cc2ccccc2)C(=O)O1 | 2400 | 2900 |
| CCCCCC[C@@H]1CCCC[C@@H](O)[C@H](C)C(=O)O[C@@H]([C@H](C)CC)C(=O)N[C@@H](Cc2ccccc2)C(=O)O1 | 3100 | 5200 |
